We go through one compound from ChEMBL document CHEMBL1149001, “Phebalosin from the bark of Micromelum minutum” (J Nat Prod, 1986).

In data set [1] the test system is Agrobacterium tumefaciens. The experiment in a line: Antitumor activity against Agrobacterium tumefaciens-induced crown gall tumors assessed as inhibition of tumor development in potato by crown gall tumor potato disk test. Also noted: scale not given: the % may be the effect or the level left. The class given is functional.
For data set [2], the system named is Artemia. The data set can be described thus: Toxicity in brine shrimp. The class given is organism-based. Particulars: in vivo.
Data set [3] in a line: Cytotoxicity against mouse 9PS cells. It counts as functional. Particulars: read-out: ED50 (the source's name).
Data set [4] is described as follows: Cytotoxicity against human 9KB cells. Particulars: read-out: ED50 (the source's name). It counts as functional.

Each structure is given as a SMILES string. In brackets after ≈: the same amount, converted by molar mass. Where only a bound is given, the exact number is not on record here.

Regarding `C=C(C)[C@H]1O[C@@H]1c1c(OC)ccc2ccc(=O)oc12` [PHEBALOSIN], the Activity in data set [1] is listed as -70%. This compound also returned an LC50 in data set [2] of 47 ppm. Besides, the EC50 in data set [3] is 27 µg/mL (≈ 105 µM); in data set [4], over 20 µg/mL.

By LC50 is commonly meant the concentration that kills 50% of the test population.
